# Experimental data as given in paper PMC7270110, “Labeled oxytocin administered via the intranasal route reaches the brain in rhesus macaques” (Nature Communications, 2020).
# Where “and” joins values, the source holds several entries; their conditions need not be identical. Equal values may be shown once. Read-outs that look alike come from different tables or passages of the source.
# Key:
# [1] = CSF concentration of endogenous d0OT by LC-MS/MS; assay type: in vivo, rhesus macaques (Macaca mulatta)
# Protocol: (§1) The six monkeys were dosed once a week, for 4 consecutive weeks, with each DOSE–ROUTE condition of d5OT (40 IU IN, 40 IU IV, 80 IU IN, or 80 IU IV). Each DOSE–ROUTE condition was assigned using a Latin square randomization (Table 4). Sessions were separated by at least 6 days. During each session, CSF (750 µl) and blood (5 ml) samples were drawn immediately prior to (T = 0) and following (T = 60 and 120 min) each administration of d5OT.
# (§2) Monkeys were divided into three groups, each with two monkeys; each group received the following in a terminal study at the 5th week: Group 1 (Monkeys ID# 1 and ID# 5) received 40 IU of d5OT IN, Group 2 received 80 IU of d5OT IN (Monkeys ID# 2 and ID# 4) and Group 3 received 80 IU of d5OT IV (Monkeys ID# 3 and ID# 6). Animals were perfused on average, 140 ± 7 (mean ± SD) min after d5OT administration (range = 135–149 min) (Table 4). Plasma and CSF were drawn just before administration of d5OT, at the midpoint between d5OT administration and perfusion (~60 min post-d5OT administration), and just before perfusion.
# Chemicals: An unlabeled standard for d0OT and deuterated standard for d5OT were purchased from Sigma-Aldrich (St. Louis, MO); d10OT was purchased for use as an internal standard through a custom order from Cayman Chemical (Ann Arbor, MI). All other reagents were commercially available, and we purchased LC or MS grade chemicals when available. Plasma and CSF sample preparation for LC–MS/MS analysis. CSF and plasma samples were collected as described above. Using 15 ml polystyrene tubes, 1.0 ml of each standard, quality control (QC), or plasma sample was combined with 30 µl of internal standard mixture (34 ng/ml d10OT in 50:50 acetonitrile (ACN):water, v–v) and incubated for 20 min on ice. Volumes used for CSF samples ranged from 0.4 to 1.0 ml, depending on sample availability. CSF samples <1.0 ml were brought to a final volume of 1.0 ml using charcoal-stripped serum, prior to addition of internal standard. To each tube, 2 ml of ice-cold ACN was added, vortexed thoroughly, and centrifuged at 2500 × g for 10 min at 4 °C. The supernatants were transferred to new 13 mm × 100 mm polypropylene tubes and evaporated in a 37 °C water bath, under forced air, to a volume of <1 ml. […]
# (§3) Solid-phase extraction (SPE) columns (Strata-X-Drug B, 60 mg/6 ml, Phenomenex, Torrance, CA) were conditioned prior to use by adding 2 ml of methanol, followed by 2 ml of water, and 2 ml of 0.2 M ammonium acetate (pH 3.0) in water; each was allowed to flow through by gravity before the next was added. […] After a 15 min incubation at 4 °C, plates were filtered into microtiter plates (Shimadzu, Kyoto, Japan) using a positive pressure manifold (8 min at 5 psi, followed by 15 s at 15 psi; Biotage, Uppsala, Sweden), and analyzed. […]
# [2] = Plasma concentration of d5OT by LC-MS/MS after IN or IV d5OT; assay type: in vivo, rhesus macaques (Macaca mulatta); settings: for level at 1 h: rhesus monkey, plasma, 60 min, present study
# Protocol: as §1, §2
# Chemicals: An unlabeled standard for d0OT and deuterated standard for d5OT were purchased from Sigma-Aldrich (St. Louis, MO); d10OT was purchased for use as an internal standard through a custom order from Cayman Chemical (Ann Arbor, MI). All other reagents were commercially available, and we purchased LC or MS grade chemicals when available. Plasma and CSF sample preparation for LC–MS/MS analysis. CSF and plasma samples were collected as described above. […]
# as §3
# [3] = 60 min, previous study, cited from earlier work
# Protocol: This study has several limitations. The limit of quantification (100 pg/ml) and between subject variability for d5OT precluded comparisons of CSF concentrations of d5OT across routes of administration (IN vs. IV), or across time (60 vs. 120 min), for a given route. […] For example, mean plasma concentration of d5OT at 60 min in the IV condition was 1992 ± 476 pg/ml in the present study and 3306 ± 1162 pg/ml in the previous st ...
"Concentrations of d5OT in the plasma ([2]; after 40 IU IN, all concentrations, LOQ 100 pg/ml)","level at 1 h ([2]; 80 IU IN condition, read-out: Plasma d5OT) [ng/mL]","level at 1 h ([2]; IV condition, read-out: Mean plasma concentration of d5OT) [ng/mL]",SMILES,"CSF concentrations of d0OT at necropsy ([1]; 40 IU IN condition, monkey #1)","CSF concentrations of d0OT at necropsy ([1]; 40 IU IN condition, one monkey) [pg/mL]","CSF concentrations of d0OT at necropsy ([1]; 80 IU IN condition, two monkeys, listed as d0OT)","CSF concentrations of d0OT at necropsy ([1]; 80 IU IV condition, two monkeys, listed as d0OT)",Plasma d5OT ([3]; 80 IU IN condition) [pg/mL],Mean plasma concentration of d5OT ([3]; IV condition) [ng/mL]
–,–,–,"CC[C@H](C)[C@@H]1NC(=O)[C@H](Cc2ccc(O)cc2)NC(=O)[C@@H](N)CSSC[C@@H](C(=O)N2CCC[C@H]2C(=O)N[C@@H](CC(C)C)C(=O)NCC(N)=O)NC(=O)[C@H](CC(N)=O)NC(=O)[C@H](CCC(N)=O)NC1=O [OT, oxytocin]",not quantified,12,16 pg/mL and 10 pg/mL,16 pg/mL and 14 pg/mL,–,–
below the level of quantification,0.284 ± 0.288,1.99 ± 0.476,CC[C@H](C)[C@@H]1NC(=O)[C@H](Cc2ccc(O)cc2)NC(=O)[C@@H](N)CSSC[C@@H](C(=O)N2CCC[C@H]2C(=O)N[C@@H](CC(C)C)C(=O)NCC(N)=O)NC(=O)[C@H](CC(N)=O)NC(=O)[C@H](CCC(N)=O)NC1=O [d5OT],–,–,–,–,615 ± 474,3.306 ± 1.162
